For nine compounds, GI50 and TGI results are on record in PubChem BioAssay (NCI).

The structures appear in SMILES notation. “And” between values parts separate entries of the source, which are not always exact repeats. Identical values can stand only once.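 These data come from cells grown in 96-well plates and exposed to compound for 48 hours at five concentrations. Abbreviation: GI50, concentration required for 50% inhibition of growth. At the TGI there is no net growth.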

A word on the GI50: it is the concentration that inhibits growth by half. The term TGI denotes the concentration giving total growth inhibition. Higher therefore signals lower sensitivity of the cells.

Some test systems named below: SNB-19 CNS; TK-10 renal; HOP-62 NSCLC; HS 578T breast; M14 melanoma; LOX IMVI melanoma; RXF 393 renal; EKVX NSCLC; A498 renal; SN12C renal.
Holding throughout (assay): DTP human tumour cell line panel, 48 h

Turning to `C=C1C(=O)O[C@H]2[C@H]1CC/C(COC(=O)NCCc1ccc(OC)cc1)=C\CC[C@@]1(C)O[C@@H]21`, the GI50 in the experiment on SNB-19 CNS is 8.65 µM; in the experiment with TK-10 renal, 2.73 µM; with HOP-62 NSCLC, 12.2 µM; in the experiment with HS 578T breast, 13.8 µM; with M14 melanoma, 1.98 µM; with LOX IMVI melanoma, 1.38 µM. Further, the GI50 was 1.55 µM in the experiment on RXF 393 renal, 7.45 µM in the experiment with EKVX NSCLC and 4.52 µM in the experiment on A498 renal. The TGI in the experiment on SNB-19 CNS came out at 23.1 µM; in the experiment with TK-10 renal, 7.62 µM; with HOP-62 NSCLC it was 27.1 µM; with HS 578T breast, 62.9 µM; with M14 melanoma it was 4.78 µM; in the experiment with LOX IMVI melanoma it was 2.89 µM. In addition, the total growth inhibition concentration (TGI) amounted to 3.11 µM in the experiment with RXF 393 renal, 21.5 µM with EKVX NSCLC and 18.1 µM in the experiment on A498 renal.

In the case of `COc1ccc(NC2=C(Sc3nc(C)cc(C)n3)C(=O)N(Cc3ccccc3)C2=O)cc1Cl`, the GI50 in the experiment with SNB-19 CNS was more than 160 µM; in the experiment on TK-10 renal, more than 160 µM; with HOP-62 NSCLC, 84.6 µM; in the experiment with HS 578T breast it was 67.9 µM; in the experiment on M14 melanoma it was more than 160 µM; in the experiment on LOX IMVI melanoma, more than 160 µM. Also, the GI50 with RXF 393 renal was 29 µM; in the experiment with EKVX NSCLC, 157 µM; with A498 renal, 62.1 µM. For the same compound, the TGI with SNB-19 CNS, in the experiment with TK-10 renal, in the experiment on HOP-62 NSCLC, in the experiment with HS 578T breast, with M14 melanoma and in the experiment with LOX IMVI melanoma was more than 160 µM throughout. Besides, the concentration for total growth inhibition (TGI) is 136 µM with RXF 393 renal, more than 160 µM in the experiment on EKVX NSCLC and more than 160 µM in the experiment on A498 renal.

In the case of `CCCCCCC(C)CC(CCCCCC)NCCOC(=O)c1ccc([N+](=O)[O-])cc1` (stereo not given), the TGI in the experiment with SNB-19 CNS was 32.2 µM and 32.5 µM; in the experiment with TK-10 renal it was 24.5 µM and 23.4 µM; in the experiment on HOP-62 NSCLC it was 33.7 µM and 30.7 µM; in the experiment on HS 578T breast, 41.5 µM and 41.1 µM; in the experiment on M14 melanoma it was 28.4 µM and 17.7 µM; in the experiment on LOX IMVI melanoma it was 24.7 µM and 19.5 µM. Besides, the TGI in the experiment with EKVX NSCLC was 27.2 µM and 21.4 µM; with SN12C renal, 25.2 µM and 23.8 µM; in the experiment on A498 renal, 34 µM and 34.8 µM. For the same compound, the GI50 in the experiment on M14 melanoma is 12.4 µM and 4.53 µM.

For `N#C/C(=C\c1cn(-c2ccccc2)c2ccccc12)C(=O)O`, the GI50 with SNB-19 CNS was 54.3 µM; with HOP-62 NSCLC it was 39.2 µM; in the experiment on HS 578T breast it was 32.2 µM; in the experiment with M14 melanoma, 61.2 µM; in the experiment on LOX IMVI melanoma it was 3.71 µM; with RXF 393 renal, 28.7 µM. The GI50 in the experiment on EKVX NSCLC is 34.2 µM; with SN12C renal, 51.1 µM; with A498 renal, 13.4 µM. Moreover, the TGI in the experiment on SNB-19 CNS, in the experiment on HOP-62 NSCLC, in the experiment on HS 578T breast, in the experiment with M14 melanoma, in the experiment with LOX IMVI melanoma and in the experiment on RXF 393 renal was more than 100 µM in each case. Besides, the TGI is more than 100 µM in the experiment on EKVX NSCLC, more than 100 µM in the experiment on SN12C renal and 35 µM with A498 renal.

On to `COc1ccc(-c2ccc(/C=N/n3cn[nH]c3=S)o2)c([N+](=O)[O-])c1`, for which the GI50 in the experiment with SNB-19 CNS was 63.2 µM; in the experiment on TK-10 renal, 18 µM; with HOP-62 NSCLC, 62.2 µM; in the experiment on HS 578T breast it was 30.6 µM; in the experiment on M14 melanoma, 49 µM; with RXF 393 renal, 32.2 µM. Further, the results for the GI50 in the experiment on EKVX NSCLC, in the experiment on SN12C renal and with A498 renal were 75 µM, 59.1 µM and 1.35 µM, respectively. The concentration for total growth inhibition (TGI) was more than 100 µM in the experiment on SNB-19 CNS; 86.6 µM with TK-10 renal; more than 100 µM in the experiment with HOP-62 NSCLC; 85.3 µM with HS 578T breast; more than 100 µM with M14 melanoma; more than 100 µM in the experiment with RXF 393 renal. Further, the results for the TGI with EKVX NSCLC, in the experiment with SN12C renal and in the experiment on A498 renal were more than 100 µM, more than 100 µM and 10.3 µM, respectively.

In the case of `Cc1cccc(C(C)O)n1` (stereo not given), the TGI in the experiment on SNB-19 CNS, with TK-10 renal, with HOP-62 NSCLC, with HS 578T breast, with M14 melanoma and with EKVX NSCLC was more than 100 µM throughout. The TGI with SN12C renal and in the experiment with A498 renal was more than 100 µM throughout.

For the compound `Cn1c2ccccc2c2c(=O)n(CCCC(=O)NCC(=O)OC(=NC3CCCCC3)NC3CCCCC3)c3c(-c4ccccc4)nnn3c21`, the GI50 was more than 100 µM with TK-10 renal; 15.3 µM in the experiment with HOP-62 NSCLC; 9.43 µM in the experiment with HS 578T breast; 31.2 µM in the experiment on M14 melanoma; 13.1 µM in the experiment with LOX IMVI melanoma; 11.1 µM in the experiment on RXF 393 renal. The GI50 in the experiment on SN12C renal was 19.5 µM; with A498 renal, 30.6 µM. The TGI in the experiment on TK-10 renal was more than 100 µM; with HOP-62 NSCLC, 36.6 µM; with HS 578T breast, more than 100 µM; with M14 melanoma, more than 100 µM; in the experiment with LOX IMVI melanoma it was 97.3 µM; in the experiment on RXF 393 renal, 36.9 µM. Also, the TGI with SN12C renal is 50.7 µM; in the experiment on A498 renal it was more than 100 µM.

As for `Nc1nc(-n2cccn2)nc(-n2cccn2)c1Br`, the GI50 with HOP-62 NSCLC, in the experiment with HS 578T breast, with M14 melanoma, in the experiment with LOX IMVI melanoma, in the experiment on RXF 393 renal and in the experiment on EKVX NSCLC was more than 100 µM in each case. For the same compound, the GI50 in the experiment with SN12C renal is more than 100 µM; in the experiment on A498 renal, 9.7 µM. In addition, the TGI in the experiment on HOP-62 NSCLC, in the experiment on HS 578T breast, with M14 melanoma, in the experiment on LOX IMVI melanoma, in the experiment on RXF 393 renal and in the experiment on EKVX NSCLC was more than 100 µM throughout. The results for the TGI in the experiment with SN12C renal and with A498 renal were more than 100 µM and 92.6 µM, respectively.

As to `N#Cc1nc(-c2cccc(Br)c2)cc(-c2ccc(Nc3nc(N4CCCCC4)nc(N4CCCCC4)n3)cc2)c1N`, the GI50 with SNB-19 CNS is 6.41 µM; with TK-10 renal it was 1.8 µM; in the experiment on HOP-62 NSCLC, 2.64 µM; in the experiment with HS 578T breast, 2.1 µM; in the experiment on M14 melanoma, 2.84 µM; in the experiment with LOX IMVI melanoma, 1.62 µM. Also, the GI50 in the experiment with RXF 393 renal was 1.34 µM; in the experiment on EKVX NSCLC it was 2.12 µM; in the experiment with SN12C renal, 2.82 µM. Besides, the concentration for total growth inhibition (TGI) was more than 100 µM in the experiment on SNB-19 CNS; 3.47 µM in the experiment on TK-10 renal; 8.76 µM in the experiment on HOP-62 NSCLC; 5.29 µM with HS 578T breast; 7.5 µM in the experiment on M14 melanoma; 3.01 µM in the experiment on LOX IMVI melanoma. The concentration for total growth inhibition (TGI) in the experiment on RXF 393 renal is 2.99 µM; in the experiment with EKVX NSCLC it was 5.02 µM; with SN12C renal, more than 100 µM.
